In patent US10376499B2, “Combination therapy for treatment of resistant bacterial infections” (priority 2014, dated 2019):
Structures can show the parent of a compound that is named as a salt. Where two headings read alike, the source gives them in different places.

Experiments:
Enterobacter cloacae = assay: MIC, recent Enterobacteriaceae clinical isolates: Enterobacter cloacae (Examples 7, 11); format: cell-based
Citrobacter spp = assay: MIC, recent Enterobacteriaceae clinical isolates: Citrobacter spp (Examples 7, 11); format: cell-based; settings: for MIC: read-out: MIC
Enterobacteriaceae = assay: organism not typed; format: cell-based
A. baumannii [1] = assay: MIC, 20 diverse recent strains of A. baumannii (Example 10); format: cell-based, Acinetobacter baumannii; settings: N 20 A. baumannii strains
A. baumannii [2] = assay: Neutropenic mouse thigh and lung infection models; settings: neutropenic CD-1 mice, subcutaneous q3h, sulbactam+compound 1 at 4:1 ratio, 24 h, isolate containing AmpC, OXA-66, OXA-72, TEM-1, FIG. 4
Escherichia coli = assay: MIC, recent Enterobacteriaceae clinical isolates: Escherichia coli (Examples 7, 11); settings: Escherichia coli
Klebsiella pneumoniae = assay: MIC, recent Enterobacteriaceae clinical isolates: Klebsiella pneumoniae (Examples 7, 11)

In the case of CC1=C[C@@H]2CN(C(=O)N2OS(=O)(=O)O)[C@@H]1C(N)=O [Compound 1, (2S,5R)-2-carbamoyl-3-methyl-7-oxo-1,6-diazabicyclo[3.2.1]oct-3-en-6-yl hydrogen sulfate], the MIC (Enterobacter cloacae; Enterobacter cloacae ARC4438, AmpC+, read-out: MIC) is reported as 2 µg/mL, the MIC (Enterobacter cloacae; Enterobacter cloacae ARC4439, AmpC+, LAP-2+, read-out: MIC) is reported as 0.5 µg/mL and the MIC (Enterobacter cloacae; Enterobacter cloacae ARC4444, AmpC+, MIR-8[I175L]) is reported as 4 µg/mL. For the same compound, the MIC (Enterobacter cloacae; Enterobacter cloacae ARC4458, AmpC+, ACT-2[V312M]) was 8 µg/mL, the MIC (Enterobacter cloacae; Enterobacter cloacae ARC4461, AmpC+, TEM-1, read-out: MIC) was 0.25 µg/mL and the MIC (Enterobacter cloacae; Enterobacter cloacae ARC4462, AmpC+, read-out: MIC) was 0.5 µg/mL. For the same compound, the MIC (Enterobacter cloacae; Enterobacter cloacae ARC4473, SHV-5+, AmpC+, DHA-1+, TEM-1+, read-out: MIC) was 0.5 µg/mL, the MIC (Enterobacter cloacae; Enterobacter cloacae ARC4489, AmpC+, read-out: MIC) was 1 µg/mL and the MIC (Enterobacter cloacae; Enterobacter cloacae ARC4492, AmpC+, read-out: MIC) was 0.5 µg/mL. It also gave an MIC (Enterobacter cloacae; Enterobacter cloacae ARC4494, OXA-1+, DHA-1+, AmpC+, read-out: MIC) of 0.25 µg/mL, an MIC90 (Enterobacter cloacae; N 10) of 4 µg/mL and an MIC range (Enterobacter cloacae; N 10) of 0.25 to 8 µg/mL. It also gave an MIC50 (Enterobacter cloacae; N 10, read-out: MIC50) of 0.5 µg/mL, an MIC (Citrobacter spp; Citrobacter braakii ARC3660, CTX-M-15) of 0.25 µg/mL and an MIC (Citrobacter spp; Citrobacter freundii ARC3522, AmpC, TEM-1, CMY65) of 0.5 µg/mL. The MIC (Citrobacter spp; Citrobacter freundii ARC3883, KPC-2) was 32 µg/mL, the MIC (Citrobacter spp; Citrobacter freundii ARC3884, KPC-2) was 4 µg/mL and the MIC (Citrobacter spp; Citrobacter freundii ARC3885, AmpH, TEM-1, SHV-5, CMY-6, CMY-13) was 4 µg/mL. For the same compound, the MIC (Citrobacter spp; Citrobacter koseri ARC2001, ESBL) was 0.5 µg/mL, the MIC (Citrobacter spp; Citrobacter koseri ARC2002, ESBL) was 0.5 µg/mL and the MIC range (Citrobacter spp; Citrobacter spp, N 7) was 0.25 to 4 µg/mL. The MIC50 (Citrobacter spp; Citrobacter spp, N 7, read-out: MIC50) was 0.5 µg/mL, the MIC90 (Citrobacter spp; Citrobacter spp, N 7, read-out: MIC90) was 4 µg/mL and the MIC50 (Enterobacteriaceae) was 0.5 µg/mL. It also gave an MIC90 (Enterobacteriaceae) of 4 µg/mL, an MIC range (Enterobacteriaceae; Total Enterobacteriaceae, N 59) of 0.125 to 32 µg/mL and an MIC50 (A. baumannii [1]) of 64 µg/mL. The MIC90 (A. baumannii [1]) was over 64 µg/mL, the MIC Max (A. baumannii [1]) was over 64 µg/mL and the MIC Min (A. baumannii [1]) was 16 µg/mL. The “efficacy (mean delta log CFU)” value (A. baumannii [2]) was “recover the activity”, the MIC (Escherichia coli) was 0.125 µg/mL and the MIC50 (Escherichia coli) was 0.5 µg/mL. It also gave an MIC90 (Escherichia coli) of 4 µg/mL, an MIC (Escherichia coli; ATCC25922, Escherichia coli ARC4, none (ATCC 25922) CLSI control) of 8 µg/mL and an MIC (Escherichia coli; Escherichia coli ARC4416, CTX-M-14+, TEM-1+) of 0.5 µg/mL. The MIC (Escherichia coli; Escherichia coli ARC4418, CTX-M-14+, CMY-2+) was 0.25 µg/mL, the MIC (Escherichia coli; Escherichia coli ARC4419, SHV-12+) was 0.25 µg/mL and the MIC (Escherichia coli; Escherichia coli ARC4421, CTX-M-55, TEM-1+, CMY-2+) was 0.25 µg/mL. The MIC (Escherichia coli; Escherichia coli ARC4429, TEM-1+, CMY-2+) was 0.25 µg/mL, the MIC (Escherichia coli; Escherichia coli ARC4432, CTX-M-14+, TEM-1+, CMY-2+) was 0.25 µg/mL and the MIC (Escherichia coli; Escherichia coli ARC4436, CTX-M-14+, TEM-1+) was 0.25 µg/mL. The MIC (Escherichia coli; Escherichia coli ARC4449, CMY-2+, TEM-1+) was 0.5 µg/mL, the MIC (Escherichia coli; Escherichia coli ARC4450, TEM-1+, OXA-1+, CMY-2+) was 2 µg/mL and the MIC (Escherichia coli; Escherichia coli ARC4452, SHV-12+) was 0.25 µg/mL. For the same compound, the MIC (Escherichia coli; Escherichia coli ARC4455, SHV-12+) was 0.25 µg/mL, the MIC (Escherichia coli; Escherichia coli ARC4465, CMY-2+) was 0.25 µg/mL and the MIC (Escherichia coli; Escherichia coli ARC4471, CMY-2+, OXA-1+, TEM-1+) was 4 µg/mL. It also gave an MIC (Escherichia coli; Escherichia coli ARC4472, CMY-2+, TEM-1+) of 2 µg/mL, an MIC (Escherichia coli; Escherichia coli ARC4477, CTX-M-15+, TEM-1+) of 2 µg/mL and an MIC (Escherichia coli; Escherichia coli ARC4478, CTX-M-15+, CMY-2+) of 0.5 µg/mL. For the same compound, the MIC (Escherichia coli; Escherichia coli ARC4479, CMY-42+, OXA-1+, OXA-9+, TEM-1+) was 32 µg/mL, the MIC (Escherichia coli; Escherichia coli ARC4485, CMY-2+, OXA-1+, CTX-M-15+) was 0.5 µg/mL and the MIC (Escherichia coli; Escherichia coli ARC4487, SHV-5+, DHA-1+, TEM-1+, OXA-1+, CMY-2+) was 4 µg/mL. The MIC50 (Klebsiella pneumoniae) was 1 µg/mL, the MIC90 (Klebsiella pneumoniae) was 4 µg/mL and the MIC (Klebsiella pneumoniae; Klebsiella pneumoniae ARC4414, SHV-11) was 2 µg/mL. It also gave an MIC (Klebsiella pneumoniae; Klebsiella pneumoniae ARC4420, SHV-11, SHV-12, DHA-1, OXA-1) of 1 µg/mL, an MIC (Klebsiella pneumoniae; Klebsiella pneumoniae ARC4427, SHV-1, OXA-1) of 0.25 µg/mL and an MIC (Klebsiella pneumoniae; Klebsiella pneumoniae ARC4434, SHV-11) of 2 µg/mL. The MIC (Klebsiella pneumoniae; Klebsiella pneumoniae ARC4435, SHV-157) was 0.25 µg/mL, the MIC (Klebsiella pneumoniae; Klebsiella pneumoniae ARC4446, SHV-11) was 2 µg/mL and the MIC (Klebsiella pneumoniae; Klebsiella pneumoniae ARC4451, SHV-11, KPC-3) was 0.5 µg/mL. The MIC (Klebsiella pneumoniae; Klebsiella pneumoniae ARC4457, SHV-11, DHA-1) was 0.5 µg/mL, the MIC (Klebsiella pneumoniae; Klebsiella pneumoniae ARC4460, SHV-11, CTX-M15, OXA-1, NDM-1) was 4 µg/mL and the MIC (Klebsiella pneumoniae; Klebsiella pneumoniae ARC4467, SHV-33, TEM-1, OXA-1, DHA-1) was 4 µg/mL. For the same compound, the MIC (Klebsiella pneumoniae; Klebsiella pneumoniae ARC4468, SHV-1) was 8 µg/mL, the MIC (Klebsiella pneumoniae; Klebsiella pneumoniae ARC4476, SHV-11, KPC-2, OXA-9[W117*]) was 4 µg/mL and the MIC (Klebsiella pneumoniae; Klebsiella pneumoniae ARC4480, SHV-27) was 0.5 µg/mL. For the same compound, the MIC (Klebsiella pneumoniae; Klebsiella pneumoniae ARC4483, SHV-11) was 1 µg/mL, the MIC (Klebsiella pneumoniae; Klebsiella pneumoniae ARC4484, SHV-168) was 1 µg/mL and the MIC (Klebsiella pneumoniae; Klebsiella pneumoniae ARC4488, SHV-11, CTX-M15, OXA-1, TEM-1) was 0.25 µg/mL. The MIC (Klebsiella pneumoniae; Klebsiella pneumoniae ARC4490, SHV-11, CTX-M15, KPC-2, OXA-1) was 0.5 µg/mL and the MIC (Klebsiella pneumoniae; Klebsiella pneumoniae ARC4495, SHV-60, LAP-2) was 4 µg/mL.
